Activity calls are given as the source filed them. No cut-off for these calls is given here.
Columns and labels:
A549 [1] = experiment: Antiproliferative activity against human A549 cells measured after 72 hrs by SRB assay; assay type: functional, cell-based
4T1 [2] = experiment: Antitumor activity against mouse 4T1 cells xenografted in female BALB/c mouse assessed as T/C at 10 mg/kg, ip administered every other day for 14 days; assay type: functional; details: time 14 day
A549 [3] = experiment: Induction of cell morphological changes in human A549 cells at 400 nM measured after 24 hrs; assay type: functional, cell-based
A549 [4] = experiment: Induction of cell cycle arrest in human A549 cells assessed as accumulation at G2/M phase at 400 nM measured after 24 hrs by propidium iodide based flow cytometry analysis; assay type: functional
Tubulin (Homo sapiens) [5] = biological target: T1, Tubulin (Homo sapiens) (UniProt P68371+Q9H4B7+P0DPH7+P68366+Q13509+Q71U36+P04350+Q3ZCM7+P07437+P68363+Q9BQE3+Q6PEY2+Q13885+Q9BVA1+Q9BUF5); experiment: Inhibition of tubulin polymerization in human A549 cells at 3 to 100 uM; assay type: cell-based; details: dose 3-100 µM
Tubulin (Homo sapiens) [6] = biological target: T1, Tubulin (Homo sapiens); experiment: Inhibition of tubulin polymerization in human A549 cells assessed as disruption of microtubule network at 200 nM measured after 24 hrs by DAPI staining method; assay type: cell-based
Tubulin (Homo sapiens) [7] = biological target: T1, Tubulin (Homo sapiens); experiment: Inhibition of tubulin (unknown origin) polymerization incubated for 15 mins at 30 uM relative to control; assay type: protein-complex assay
KB = experiment: Antiproliferative activity against human KB cells measured after 72 hrs by SRB assay; assay type: functional, cell-based
[8] = Antiproliferative activity against human KB/VCR cells measured after 72 hrs by SRB assay; assay type: functional, cell-based
[9] = Resistant index, ratio IC50 for KB/VCR cells over IC50 for KB cells; assay type: functional
KB-V1 = experiment: Antiproliferative activity against human KB-V1 cells measured after 72 hrs by SRB assay; assay type: functional, cell-based; details: KB-V1, 72 h
[10] = Resistant index, ratio IC50 for KB-V1 cells over IC50 for KB cells; assay type: functional
K562 = experiment: Antiproliferative activity against human K562 cells measured after 72 hrs by SRB assay; assay type: functional, cell-based; details: K562, 72 h
K562/Adr = experiment: Antiproliferative activity against human K562/Adr cells measured after 72 hrs by SRB assay; assay type: functional, cell-based
RAW264.7 = experiment: Antiproliferative activity against mouse RAW264.7 cells measured after 72 hrs by SRB assay; assay type: functional, cell-based; details: RAW264.7, 72 h
HL-60 = experiment: Antiproliferative activity against human HL-60 cells measured after 72 hrs by SRB assay; assay type: functional, cell-based; details: HL-60, 72 h
THP-1 = experiment: Antiproliferative activity against human THP-1 cells measured after 72 hrs by SRB assay; assay type: functional, cell-based; details: THP-1, 72 h
HeLa = experiment: Antiproliferative activity against human HeLa cells measured after 72 hrs by SRB assay; assay type: functional, cell-based
HT-1080 = experiment: Antiproliferative activity against human HT-1080 cells measured after 72 hrs by SRB assay; assay type: functional, cell-based; details: HT-1080, 72 h
4T1 [11] = experiment: Antiproliferative activity against mouse 4T1 cells measured after 72 hrs by SRB assay; assay type: functional, cell-based; details: 4T1, 72 h
[12] = Antiproliferative activity against human MRC9 cells measured after 72 hrs by SRB assay; assay type: functional, cell-based; details: MRC9, 72 h
A549 [13] = experiment: Induction of cell cycle arrest in human A549 cells assessed as accumulation at G2/M phase at 20 nM measured propidium iodide based flow cytometry analysis; assay type: functional
[14] = Resistant index, ratio IC50 for K562/Adr cells over IC50 for K562 cells; assay type: functional
[15] = Metabolic stability in human liver microsomes assessed as intrinsic clearance at 1 uM in presence of NADPH measured by LC-MS/MS analysis; assay type: ADME, Microsome
4T1 [16] = experiment: Antitumor activity against mouse 4T1 cells xenografted in female BALB/c mouse assessed as T/C at 5 mg/kg, ip administered every other day for 14 days; assay type: functional; details: time 14 day
[17] = Toxicity in female BALB/c mouse xenografted with mouse 4T1 cells assessed as body weight loss at 5 mg/kg, ip administered every other day for 14 days and measured after 7 days; assay type: organism-based; details: in vivo, 336 h, time 14 day

Q: Which IC50 (A549 [1]; Homo sapiens, A549, 72 h) does the source give for `COc1cc(C#N)cc(-c2ccc(C(=O)c3cccc(Cl)c3)cc2)c1` here?
A: 121 nM

Q: Which IC50 (A549 [1]; Homo sapiens, A549, 72 h) does the source give for `O=C(c1ccccc1)c1ccc(-c2ccccc2)cc1` here?
A: > 10000 nM

Q: Which IC50 (A549 [1]; Homo sapiens, A549, 72 h) does the source give for `O=C(c1ccccc1)c1ccc(-c2cccc(Cl)c2)cc1` here?
A: 1870 nM

Q: With `CC(=O)O[C@H]1C(=O)[C@@]2(C)[C@H]([C@H](OC(=O)c3ccccc3)[C@]3(O)C[C@H](OC(=O)[C@H](O)[C@@H](NC(=O)c4ccccc4)c4ccccc4)C(C)=C1C3(C)C)[C@]1(OC(C)=O)CO[C@@H]1C[C@@H]2O` [PACLITAXEL] as the compound, how does the T/C (4T1 [2]) read?
A: 49.2%

Q: For `COc1cc(OC)cc(-c2ccc(C(=O)c3ccccc3)c(N)c2)c1`, which IC50 (A549 [1]; Homo sapiens, A549, 72 h) is on record?
A: 49 nM

Q: Which IC50 (A549 [1]; Homo sapiens, A549, 72 h) does the source give for `COc1cc(C#N)cc(-c2ccc(C(=O)c3ccccc3)c(NC(C)=O)c2)c1` here?
A: 1030 nM

Q: Which IC50 (A549 [1]; Homo sapiens, A549, 72 h) does the source give for `COc1cc(OC)c(-c2ccc(C(=O)c3ccccc3)cc2)cc1OC` here?
A: > 10000 nM

Q: For `COc1cc(C#N)cc(-c2ccc(C(=O)c3ccco3)cc2)c1`, which IC50 (A549 [1]; Homo sapiens, A549, 72 h) is on record?
A: > 10000 nM

Q: With `COc1cc(C#N)cc(-c2ccc(C(=O)c3cccs3)cc2)c1` as the compound, how does the IC50 (A549 [1]; Homo sapiens, A549, 72 h) read?
A: 1190 nM

Q: Which IC50 (A549 [1]; a549) does the source give for `COc1cc(C#N)cc(-c2ccc(C(=O)c3ccccc3)c(N)c2)c1` here?
A: 6 nM

Q: For `COc1cc(OC)cc(-c2ccc(C(=O)c3ccccc3)cc2)c1`, which IC50 (A549 [1]; Homo sapiens, A549, 72 h) is on record?
A: 94 nM

Q: What about the Activity (A549 [3]) of the same compound?
A: Active

Q: What about the Activity (A549 [4]) of the same compound?
A: Active

Q: And the inhibition (Tubulin (Homo sapiens) [5])?
A: Active

Q: And the inhibition (Tubulin (Homo sapiens) [6])?
A: Active

Q: And the inhibition (Tubulin (Homo sapiens) [7])?
A: 23.9%

Q: What about the IC50 (KB) of the same compound?
A: 52.7 nM

Q: And the IC50 [8]?
A: 42.5 nM

Q: And the “Ratio IC50” value [9]?
A: 0.8

Q: And the IC50 (KB-V1)?
A: 51.7 nM

Q: What about the “Ratio IC50” value [10] of the same compound?
A: 1

Q: What about the IC50 (K562) of the same compound?
A: 137 nM

Q: And the IC50 (K562/Adr)?
A: 305 nM

Q: Which IC50 (A549 [1]; Homo sapiens, A549, 72 h) does the source give for `N#Cc1cccc(-c2ccc(C(=O)c3ccccc3)cc2)c1` here?
A: 787 nM

Q: With `N#Cc1ccc(-c2ccc(C(F)(F)F)cc2)cc1` as the compound, how does the IC50 (A549 [1]; Homo sapiens, A549, 72 h) read?
A: 5900 nM

Q: With `CCOc1cccc(-c2ccc(C(=O)c3ccccc3)cc2)c1` as the compound, how does the IC50 (A549 [1]; Homo sapiens, A549, 72 h) read?
A: 1580 nM

Q: For `COc1cc(C#N)cc(-c2ccc(C(O)c3ccccc3)cc2)c1` (stereo not drawn), which IC50 (A549 [1]; Homo sapiens, A549, 72 h) is on record?
A: 770 nM

Q: For `O=C(c1ccccc1)c1ccc(-c2cc(C(F)(F)F)cc(C(F)(F)F)c2)cc1`, which IC50 (A549 [1]; Homo sapiens, A549, 72 h) is on record?
A: > 10000 nM

Q: For `COc1cc(C#N)cc(-c2ccc(C(=O)c3ccccc3Cl)cc2)c1`, which IC50 (A549 [1]; Homo sapiens, A549, 72 h) is on record?
A: 306 nM

Q: With `O=C(c1ccccc1)c1ccc(-c2cccc(C(F)(F)F)c2)cc1` as the compound, how does the IC50 (A549 [1]; Homo sapiens, A549, 72 h) read?
A: 6540 nM

Q: For `COc1cc(C#N)cc(-c2ccc(C(=O)c3ccccc3N)cc2)c1`, which IC50 (A549 [1]; Homo sapiens, A549, 72 h) is on record?
A: 1390 nM

Q: With `CC[C@]1(O)C[C@H]2CN(CCc3c([nH]c4ccccc34)[C@@](C(=O)OC)(c3cc4c(cc3OC)N(C=O)[C@H]3[C@@](O)(C(=O)OC)[C@H](OC(C)=O)[C@]5(CC)C=CCN6CC[C@]43[C@@H]65)C2)C1` [VINCRISTINE] as the compound, how does the IC50 (KB) read?
A: 6.7 nM

Q: What about the IC50 [8] of the same compound?
A: 2010 nM

Q: What about the “Ratio IC50” value [9] of the same compound?
A: 301

Q: What about the IC50 (KB-V1) of the same compound?
A: 8570 nM

Q: And the “Ratio IC50” value [10]?
A: 1282.2

Q: With `COc1cc(C#N)cc(-c2ccc(C(=O)c3ccccc3)c(N)c2)c1.Cl` as the compound, how does the IC50 (A549 [1]; Homo sapiens, A549, 72 h) read?
A: 5 nM

Q: And the IC50 (RAW264.7)?
A: 7.6 nM

Q: What about the IC50 (HL-60) of the same compound?
A: 6.8 nM

Q: What about the IC50 (THP-1) of the same compound?
A: 7.4 nM

Q: What about the IC50 (HeLa) of the same compound?
A: 4.2 nM

Q: And the IC50 (HT-1080)?
A: 6.3 nM

Q: What about the IC50 (4T1 [11]) of the same compound?
A: 7.7 nM

Q: What about the IC50 [12] of the same compound?
A: 166 nM

Q: What about the Activity (A549 [13]) of the same compound?
A: 90%

Q: And the IC50 (KB)?
A: 6.3 nM

Q: And the IC50 [8]?
A: 6.1 nM

Q: What about the “Ratio IC50” value [9] of the same compound?
A: 1

Q: What about the IC50 (KB-V1) of the same compound?
A: 6.3 nM

Q: What about the “Ratio IC50” value [10] of the same compound?
A: 1

Q: And the IC50 (K562)?
A: 7.8 nM

Q: What about the IC50 (K562/Adr) of the same compound?
A: 7.1 nM

Q: And the “Ratio IC50” value [14]?
A: 0.9

Q: What about the CLH [15] of the same compound?
A: 0.581 mL/min/g

Q: What about the T/C (4T1 [16]) of the same compound?
A: 29.9%

Q: What about the Activity [17] of the same compound?
A: Non-Toxic

Q: With `COc1cc(OC)cc(C(=O)c2ccc(-c3cc(C#N)cc(OC)c3)cc2)c1` as the compound, how does the IC50 (A549 [1]; Homo sapiens, A549, 72 h) read?
A: 72 nM

Q: For `COc1cc(C#N)cc(-c2ccc(C(=O)c3ccccc3)c(O)c2)c1`, which IC50 (A549 [1]; Homo sapiens, A549, 72 h) is on record?
A: 114 nM
